Target: T1, Nuclear receptor subfamily 1 group I member 3 (Homo sapiens, UniProt Q14994)
T1 sequence (Q14994 whole entry): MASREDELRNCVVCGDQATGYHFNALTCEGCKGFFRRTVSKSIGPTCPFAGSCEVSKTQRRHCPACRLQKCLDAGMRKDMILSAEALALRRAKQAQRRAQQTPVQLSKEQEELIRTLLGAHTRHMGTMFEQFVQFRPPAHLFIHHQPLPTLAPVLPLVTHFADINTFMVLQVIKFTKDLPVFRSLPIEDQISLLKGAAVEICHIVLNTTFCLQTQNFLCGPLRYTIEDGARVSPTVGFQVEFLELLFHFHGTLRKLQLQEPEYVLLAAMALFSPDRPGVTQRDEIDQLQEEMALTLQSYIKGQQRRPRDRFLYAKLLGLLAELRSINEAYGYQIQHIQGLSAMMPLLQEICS
Assay: Inverse agonist activity at GST tagged-human CAR-LBD assessed as reduction in fluorescein-PGC1 alpha coactivator recruitment after 1 hr by TR-FRET assay

| IC50 [nM] | Structure (SMILES) |
| --- | --- |
| > 70000 | CCOC(=O)Nc1ccc2c(c1)N(C(=O)CN)c1ccccc1CC2 |
| 216 | CC(C)(C)OC(=O)Nc1ccc2c(c1)N(C(=O)CN1CCCCC1)c1ccccc1CC2 |
| 19.5 | CC(C)OC(=O)Nc1ccc2c(c1)N(C(=O)COC1CCCC1)c1ccccc1CC2 |
| 680 | CCN(CC)CC(=O)N1c2ccccc2CCc2ccc(NC(=O)OC(C)C)cc21 |
| 31.9 | CC(C)(C)OC(=O)Nc1ccc2c(c1)N(C(=O)Cn1cccc1)c1ccccc1CC2 |
| 11.7 | O=C(Nc1ccc2c(c1)N(C(=O)Cn1cccc1)c1ccccc1CC2)OC1CCCCC1 |
| 116 | CC(C)OCC(=O)N1c2ccccc2CCc2ccc(NC(=O)OC(C)(C)C)cc21 |
| 116 | CCCN(CCC)CC(=O)N1c2ccccc2CCc2ccc(NC(=O)OC(C)C)cc21 |
| 1030 | CCN(CC)CC(=O)N1c2ccccc2CCc2ccc(NC(=O)OC(C)(C)C)cc21 |

Reference: ChEMBL document CHEMBL3763070, “Development of CINPA1 analogs as novel and potent inverse agonists of constitutive androstane receptor” (Eur J Med Chem, 2016)
